Consider 11 molecules from patent publication US20250263440A1, “CD38-BINDING AGENTS AND USES THEREOF” (PeptiDream Inc., priority 2019, published 2025).

In this assay the target is His-tagged CD38 (Homo sapiens, UniProt P28907). Put plainly: SPR assay (Biacore S200, Sensor Chip NTA, single-cycle kinetics) of SEQ ID NO.1 variants against His-tagged CD38. The settings on record: for kon / koff: SPR Biacore S200, NTA chip, His-tagged CD38; for kon: read-out: Ka (association rate constant); for koff: read-out: Kd (dissociation rate constant); for Kd: SPR Biacore S200, His-tagged CD38, calculated from ka and kd. Type of assay: binding. As for the experimental part:
SPR assay was performed using Biacore S200 (Cytiva: Former GE Healthcare).
After the equilibration of Series S Sensor Chip NTA (produced by Cytiva: Former GE Healthcare) with Running Buffer (10 mM HEPES pH7.4, 150 mM NaCl, 0.05% Tween 20), followed by injection of 350 mM EDTA at a flow rate of 10 L/min for 60 seconds and […] NiCl2 at a flow rate of 10 L/min for 60 seconds, then 3 mM EDTA at a flow rate of 10 L/min for 120 seconds, sequently, to wash the sensor chip.
EDC/NHS mixture was injected at a flow rate of […] for 7 minutes to thereby activate the functional groups on sensor chip. His-tagged CD38 in Running Buffer (10 mM HEPES pH7.4, 150 mM NaCl, 0.05% Tween 20) was injected immobilized to at a flow rate of […]. For 7 minutes to immobilize the CD38 on the substrate surfaces of the sensor chip. Then Ethanolamine was injected at a flow rate of […] for 7 minutes.
1.0 M Ethanolamine(aq.) was injected at a flow rate of 10 L/min for 420 seconds for capping. 10 mM peptides (which were synthesised described above) in DMSO were diluted to obtain 10 uM with Running Buffer, and prepared 100 nM, 50 nM, 25 nM, 10 nM, 5 nM of each peptide's solutions (Peptide Samples).
Using these Peptide Samples, kinetics of peptides against His-tagged CD38 was measured. The method adopted for sample measurement was a single-cycle kinetics method. The analysis was conducted using the evaluation software 1.1 provided with Biacore S200. A DMSO correction curve obtained by solvent correction measurements was applied for the analysis. Kinetics fitting was done on the difference data obtained by subtracting the baseline data from sample measurement data.
KD values were calculated based on the association rate constant (ka) and dissociation rate constant (kd).

Starred links: 1 amine or outer side, 2 acyl side, 3 side chain; linkers in the order of their positions; H or OH if unused. Positions of bridges follow the written chain, without caps; N, C: chain ends. Non-standard residues stand in square brackets, D forms with d. Residues, ends and D or L forms follow the SMILES beside them. Ala(2-NH2-4-pyridyl) = Nc1cc(C[C@H](N)C(=O)O)ccn1; X2 = N=C(N)Nc1cccc(CC(N[*:1])C(=O)[*:2])c1; Bip = N[C@@H](Cc1ccc(-c2ccccc2)cc1)C(=O)O; Arg(Me2a) = CN(C)C(=N)NCCC[C@H](N)C(=O)O; Nle(6-Ph) = N[C@@H](CCCCc1ccccc1)C(=O)O; X3 = CCCCCCCCC[C@H](N[*:1])C(=O)[*:2]; Met(O2) = CS(=O)(=O)CC[C@H](N)C(=O)O; hArg = N=C(N)NCCCC[C@H](N)C(=O)O; hCit = NC(=O)NCCCC[C@H](N)C(=O)O; Ahp(2) = CCCCC[C@H](N)C(=O)O

Turning to `CCCCC[C@@H]1NC(=O)[C@H](CCCNC(=N)N)NC(=O)[C@H](C)NC(=O)CSC[C@@H](C(N)=O)NC(=O)[C@H](CC(=O)O)NC(=O)[C@H](CCCCC)NC(=O)[C@H](Cc2ccc(-c3ccccc3)cc2)NC(=O)[C@H](CC(C)C)NC(=O)[C@H](C(C)C)NC(=O)[C@H](CCC(N)=O)NC(=O)[C@H](CC(=O)O)NC(=O)[C@H](Cc2c[nH]cn2)NC(=O)[C@H](Cc2ccc(O)cc2)NC1=O` [compound 4] ({CH2CO}-AR[Ahp(2)]YHDQVL[Bip][Ahp(2)]DC-NH2; thioether N-13 (inferred); N-terminus and C-terminus assumed), the kon was found to be 533000 M⁻¹ s⁻¹ and the koff was found to be 0.0023 s⁻¹.
For `CCCCC[C@@H]1NC(=O)C(Cc2cccc(NC(=N)N)c2)NC(=O)[C@H](C)NC(=O)CSC[C@@H](C(N)=O)NC(=O)[C@H](CC(=O)O)NC(=O)[C@H](CCCCC)NC(=O)[C@H](Cc2ccc(-c3ccccc3)cc2)NC(=O)[C@H](CC(C)C)NC(=O)[C@H](C(C)C)NC(=O)[C@H](CCC(=O)O)NC(=O)[C@H](CC(=O)O)NC(=O)[C@H](Cc2c[nH]cn2)NC(=O)[C@H](Cc2ccc(O)cc2)NC1=O` (stereo partly shown) [compound 29] ({CH2CO}-A[X2][Ahp(2)]YHDEVL[Bip][Ahp(2)]DC-NH2; thioether N-13; C-terminus assumed) the same measures were 380000 M⁻¹ s⁻¹ and 0.00078 s⁻¹.
For the molecule `CCCCC[C@@H]1NC(=O)[C@H](CCCNC(=N)N)NC(=O)[C@H](C)NC(=O)CSC[C@@H](C(N)=O)NC(=O)[C@H](CC(=O)O)NC(=O)[C@H](CCCCC)NC(=O)[C@H](Cc2ccc(-c3ccccc3)cc2)NC(=O)[C@H](CC(C)C)NC(=O)[C@H](C(C)C)NC(=O)[C@H](CCC(=O)O)NC(=O)[C@H](CC(=O)O)NC(=O)[C@H](Cc2c[nH]cn2)NC(=O)[C@H](C)NC1=O` [compound 21] ({CH2CO}-AR[Ahp(2)]AHDEVL[Bip][Ahp(2)]DC-NH2; thioether N-13 (inferred); N-terminus and C-terminus assumed), the kon came to 310000 M⁻¹ s⁻¹ and the koff amounted to 0.016 s⁻¹.
Turning to `CCCCC[C@@H]1NC(=O)[C@H](CCCCNC(N)=O)NC(=O)[C@H](C)NC(=O)CSC[C@@H](C(N)=O)NC(=O)[C@H](CC(=O)O)NC(=O)[C@H](CCCCc2ccccc2)NC(=O)[C@H](Cc2ccc(-c3ccccc3)cc2)NC(=O)[C@H](CC(C)C)NC(=O)[C@H](C(C)C)NC(=O)[C@H](CCC(=O)O)NC(=O)[C@H](CC(=O)O)NC(=O)[C@H](Cc2c[nH]cn2)NC(=O)[C@H](Cc2ccc(O)cc2)NC1=O` [compound 33] ({CH2CO}-A[hCit][Ahp(2)]YHDEVL[Bip][Nle(6-Ph)]DC-NH2; thioether N-13), the Kd was 6.7 nM, the kon came out at 220000 M⁻¹ s⁻¹ and the koff was 0.0015 s⁻¹.
As to `CCCCC[C@@H]1NC(=O)[C@H](Cc2ccc(-c3ccccc3)cc2)NC(=O)[C@H](CC(C)C)NC(=O)[C@H](C(C)C)NC(=O)[C@H](CCC(=O)O)NC(=O)[C@H](CC(=O)O)NC(=O)[C@H](Cc2c[nH]cn2)NC(=O)[C@H](Cc2ccc(O)cc2)NC(=O)[C@H](CCCCC)NC(=O)[C@H](CCCNC(=N)N)NC(=O)[C@H](C)NC(=O)CSC[C@@H](C(N)=O)NC(=O)[C@H](C)NC1=O` [compound 27] ({CH2CO}-AR[Ahp(2)]YHDEVL[Bip][Ahp(2)]AC-NH2; thioether N-13 (inferred); N-terminus and C-terminus assumed), the kon was 560000 M⁻¹ s⁻¹ and the koff amounted to 0.0028 s⁻¹.
Consider `CCCCCCCCC[C@@H]1NC(=O)[C@H](Cc2ccc(-c3ccccc3)cc2)NC(=O)[C@H](CC(C)C)NC(=O)[C@H](C(C)C)NC(=O)[C@H](CCC(=O)O)NC(=O)[C@H](CC(=O)O)NC(=O)[C@H](Cc2c[nH]cn2)NC(=O)[C@H](Cc2ccc(O)cc2)NC(=O)[C@H](CCCCC)NC(=O)[C@H](CCCNC(=N)N)NC(=O)[C@H](C)NC(=O)CSC[C@@H](C(N)=O)NC(=O)[C@H](CC(=O)O)NC1=O` [compound 24] ({CH2CO}-AR[Ahp(2)]YHDEVL[Bip][X3]DC-NH2; thioether N-13 (inferred); N-terminus and C-terminus assumed), for which the kon worked out at 370000 M⁻¹ s⁻¹ and the koff was determined as 0.0013 s⁻¹.
Take `CCCCC[C@@H]1NC(=O)[C@H](CCCNC(=N)N(C)C)NC(=O)[C@H](C)NC(=O)CSC[C@@H](C(N)=O)NC(=O)[C@H](CC(=O)O)NC(=O)[C@H](CCCCc2ccccc2)NC(=O)[C@H](Cc2ccc(-c3ccccc3)cc2)NC(=O)[C@H](CC(C)C)NC(=O)[C@H](C(C)C)NC(=O)[C@H](CCC(=O)O)NC(=O)[C@H](CC(=O)O)NC(=O)[C@H](Cc2c[nH]cn2)NC(=O)[C@H](Cc2ccc(O)cc2)NC1=O` [compound 32] ({CH2CO}-A[Arg(Me2a)][Ahp(2)]YHDEVL[Bip][Nle(6-Ph)]DC-NH2; thioether N-13): the Kd is 5.6 nM, the kon was found to be 250000 M⁻¹ s⁻¹ and the koff was determined as 0.0014 s⁻¹.
The matching figures for `CCCCC[C@@H]1NC(=O)[C@H](CCCNC(=N)N)NC(=O)[C@H](C)NC(=O)CSC[C@@H](C(N)=O)NC(=O)[C@H](CC(=O)O)NC(=O)[C@H](CCCCC)NC(=O)[C@H](Cc2ccc(-c3ccccc3)cc2)NC(=O)[C@H](CCS(C)(=O)=O)NC(=O)[C@H](C(C)C)NC(=O)[C@H](CCCCNC(=N)N)NC(=O)[C@H](CC(=O)O)NC(=O)[C@H](Cc2c[nH]cn2)NC(=O)[C@H](Cc2ccc(O)cc2)NC1=O` [compound 16] ({CH2CO}-AR[Ahp(2)]YHD[hArg]V[Met(O2)][Bip][Ahp(2)]DC-NH2; thioether N-13): 17.3 nM, 870000 M⁻¹ s⁻¹ and 0.015 s⁻¹.
With `CCCCC[C@@H]1NC(=O)[C@H](CCCNC(=N)N)NC(=O)[C@H](C)NC(=O)CSC[C@@H](C(N)=O)NC(=O)[C@H](CC(=O)O)NC(=O)[C@H](CCCCC)NC(=O)[C@H](Cc2ccc(-c3ccccc3)cc2)NC(=O)[C@H](CC(C)C)NC(=O)[C@H](C(C)C)NC(=O)[C@H](CCS(C)(=O)=O)NC(=O)[C@H](CC(=O)O)NC(=O)[C@H](Cc2c[nH]cn2)NC(=O)[C@H](Cc2ccc(O)cc2)NC1=O` [compound 6] ({CH2CO}-AR[Ahp(2)]YHD[Met(O2)]VL[Bip][Ahp(2)]DC-NH2; thioether N-13), the Kd was 2.94 nM, the kon turned out to be 631000 M⁻¹ s⁻¹ and the koff was 0.00186 s⁻¹.
For `CCCCC[C@@H]1NC(=O)[C@H](CCCNC(=N)N)NC(=O)[C@H](C)NC(=O)CSC[C@@H](C(N)=O)NC(=O)[C@H](CC(=O)O)NC(=O)[C@H](CCCCC)NC(=O)[C@H](Cc2ccc(-c3ccccc3)cc2)NC(=O)[C@H](CCS(C)(=O)=O)NC(=O)[C@H](C(C)C)NC(=O)[C@H](CCCNC(=N)N)NC(=O)[C@H](CC(=O)O)NC(=O)[C@H](Cc2c[nH]cn2)NC(=O)[C@H](Cc2ccc(O)cc2)NC1=O` [compound 15] ({CH2CO}-AR[Ahp(2)]YHDRV[Met(O2)][Bip][Ahp(2)]DC-NH2; thioether N-13) the same measures were 9.42 nM, 1.4e+06 M⁻¹ s⁻¹ and 0.013 s⁻¹.
The matching figures for `CCCCC[C@@H]1NC(=O)[C@H](Cc2ccnc(N)c2)NC(=O)[C@H](C)NC(=O)CSC[C@@H](C(N)=O)NC(=O)[C@H](CC(=O)O)NC(=O)[C@H](CCCCc2ccccc2)NC(=O)[C@H](Cc2ccc(-c3ccccc3)cc2)NC(=O)[C@H](CC(C)C)NC(=O)[C@H](C(C)C)NC(=O)[C@H](CCC(=O)O)NC(=O)[C@H](CC(=O)O)NC(=O)[C@H](Cc2c[nH]cn2)NC(=O)[C@H](Cc2ccc(O)cc2)NC1=O` [compound 34] ({CH2CO}-A[Ala(2-NH2-4-pyridyl)][Ahp(2)]YHDEVL[Bip][Nle(6-Ph)]DC-NH2; thioether N-13): 10.4 nM, 120000 M⁻¹ s⁻¹ and 0.0012 s⁻¹.
